Values after ≈ are worked out from the molar mass of the structure shown.
Key:
[1] = tested on: Escherichia coli NIHJ; assay: Antimicrobial activity, agar dilution method (minimal inhibitory concentration); type: cell-based
Description: (§1) The antimicrobial activities of the compounds obtained in the above Examples determined by the standard test method (i.e. agar dilution method) as well as those of the following penicillins as disclosed in U.S. Pat. No. 3,433,784 are shown in Table 2: [drawing 59]

[2] = tested on: Klebsiella pneumoniae 602; assay: as above; type: cell-based
Description: as §1

[3] = tested on: Proteus vulgaris HX19; assay: as above; type: cell-based
Description: as §1

[4] = tested on: Psudomonas aeruginosa 104; assay: as above; type: cell-based
Description: as §1

[5] = tested on: Staphylococcus aureus 209P; assay: as above; type: cell-based
Description: as §1

[6] = tested on: Proteus miravilis 2425; assay: as above; type: cell-based
Description: as §1

[7] = tested on: Pseudomonas; conditions: prior art penicillins; cited from earlier work

| Compound | MIC [1] [µg/mL] | MIC [2] [µg/mL] | MIC [3] [µg/mL] | MIC [4] [µg/mL] | MIC [5] [µg/mL] | MIC [6] [µg/mL] | anti-Pseudomonas activity [7] |
| --- | --- | --- | --- | --- | --- | --- | --- |
| CC1(C)S[C@@H]2[C@H](NC(=O)[C@H](NC(=O)c3cnc4cccnc4c3O)c3ccc(O)cc3)C(=O)N2[C@H]1C(=O)O (mixture of isomers) [Example 2, D-α-(4-hydroxy-1,5-naphthyridine-3-carbonamido)-p-hydroxyphenylacetamidopenicillanic acid] | 0.78 | 6.25 | 0.0125 | 0.78 | 1.56 | – | – |
| CCOc1cnc2ccccc2c1C(=O)NC(C(=O)N[C@@H]1C(=O)N2[C@@H]1SC(C)(C)[C@@H]2C(=O)O)c1ccccc1 (stereo partly shown) [B, reference compound] | 50 (≈ 91.1 µM) | 25 (≈ 45.6 µM) | 12.5 (≈ 22.8 µM) | 100 (≈ 182 µM) | 0.39 (≈ 0.711 µM) | 100 (≈ 182 µM) | – |
| CC1(C)S[C@@H]2[C@H](NC(=O)C(C(=O)O)c3ccccc3)C(=O)N2[C@H]1C(=O)O (stereo partly shown) [Carbenicillin, reference compound] | – | – | 0.78 (≈ 2.06 µM) | 50 (≈ 132 µM) | – | – | not sufficiently strong |
| CC1(C)S[C@@H]2[C@H](NC(=O)C(NC(=O)c3ccccn3)c3ccccc3)C(=O)N2[C@H]1C(=O)O (stereo partly shown) [Compound, reference compound] | – | – | 0.39 (≈ 0.858 µM) | – | – | – | – |
| CC1(C)S[C@@H]2[C@H](NC(=O)[C@H](NC(=O)c3cnc4cccnc4c3O)c3ccccc3)C(=O)N2[C@H]1C(=O)O [Example 1, D-α-(4-hydroxy-1,5-naphthyridine-3-carbonamido)benzylpenicillin] | 1.56 (≈ 2.99 µM) | 6.25 (≈ 12 µM) | 0.1 (≈ 0.192 µM) | 1.56 (≈ 2.99 µM) | 0.78 (≈ 1.5 µM) | 3.13 (≈ 6 µM) | – |
| CC1(C)S[C@@H]2[C@H](NC(=O)[C@H](NC(=O)c3cnccc3O)c3ccccc3)C(=O)N2[C@H]1C(=O)O [Example 3, D-α-(4-hydroxypyridine-3-carbonamido)benzylpenicillin] | 25 (≈ 53.1 µM) | 25 (≈ 53.1 µM) | 0.1 (≈ 0.213 µM) | 3.13 (≈ 6.65 µM) | 0.39 (≈ 0.829 µM) | 6.25 (≈ 13.3 µM) | – |
| CC1(C)S[C@@H]2[C@H](NC(=O)[C@H](NC(=O)c3nnc4ccccc4c3O)c3ccccc3)C(=O)N2[C@H]1C(=O)O [Example 4, D-α-(4-hydroxycinnoline-3-carbonamido)benzylpenicillin] | 12.5 (≈ 24 µM) | 12.5 (≈ 24 µM) | 0.78 (≈ 1.5 µM) | 12.5 (≈ 24 µM) | 0.78 (≈ 1.5 µM) | 12.5 (≈ 24 µM) | – |
| CC1(C)S[C@@H]2[C@H](NC(=O)[C@H](NC(=O)c3ccnnc3O)c3ccccc3)C(=O)N2[C@H]1C(=O)O [Example 5, D-α-(3hydroxypyridazine-4-carbonamido)benzylpenicillin] | 12.5 (≈ 26.5 µM) | 6.25 (≈ 13.3 µM) | 0.05 (≈ 0.106 µM) | 3.13 (≈ 6.64 µM) | 0.39 (≈ 0.827 µM) | 6.25 (≈ 13.3 µM) | – |
| CC1(C)S[C@@H]2[C@H](NC(=O)[C@H](NC(=O)c3cnc4cccnc4c3O)C3=CCC=CC3)C(=O)N2[C@H]1C(=O)O [Example 6] | 1.56 (≈ 2.98 µM) | 3.13 (≈ 5.98 µM) | < 0.05 | 1.56 (≈ 2.98 µM) | 0.39 (≈ 0.745 µM) | 3.13 (≈ 5.98 µM) | – |
| CC1(C)S[C@@H]2[C@H](NC(=O)[C@H](NC(=O)c3cnc(O)nc3O)c3ccccc3)C(=O)N2[C@H]1C(=O)O [Example 7] | 12.5 (≈ 25.6 µM) | 25 (≈ 51.3 µM) | 0.05 (≈ 0.103 µM) | 3.13 (≈ 6.42 µM) | 0.39 (≈ 0.8 µM) | 6.25 (≈ 12.8 µM) | – |
| CC1(C)S[C@@H]2[C@H](NC(=O)[C@H](NC(=O)c3cncnc3O)c3ccccc3)C(=O)N2[C@H]1C(=O)O [Example 8] | 25 (≈ 53 µM) | 100 (≈ 212 µM) | 0.05 (≈ 0.106 µM) | 3.13 (≈ 6.64 µM) | 0.39 (≈ 0.827 µM) | 12.5 (≈ 26.5 µM) | – |
| CC1(C)S[C@@H]2[C@H](NC(=O)[C@H](NC(=O)c3cnc4ccccc4c3O)c3ccccc3)C(=O)N2[C@H]1C(=O)O [Example 9] | – | – | 0.2 (≈ 0.384 µM) | – | – | – | – |
| CC1(C)S[C@@H]2[C@H](NC(=O)[C@H](NC(=O)c3ncccc3O)c3ccccc3)C(=O)N2[C@H]1C(=O)O [Example 10] | 6.25 (≈ 13.3 µM) | 25 (≈ 53.1 µM) | 0.2 (≈ 0.425 µM) | 6.25 (≈ 13.3 µM) | 0.2 (≈ 0.425 µM) | 25 (≈ 53.1 µM) | – |
| CC1(C)S[C@@H]2[C@H](NC(=O)[C@H](NC(=O)c3cccnc3O)c3ccccc3)C(=O)N2[C@H]1C(=O)O [Example 11] | 12.5 (≈ 26.6 µM) | 25 (≈ 53.1 µM) | 0.2 (≈ 0.425 µM) | 6.25 (≈ 13.3 µM) | 0.39 (≈ 0.829 µM) | 25 (≈ 53.1 µM) | – |
| CC1(C)S[C@@H]2[C@H](NC(=O)[C@H](NC(=O)c3cnc4c(c3O)CCCC4)c3ccccc3)C(=O)N2[C@H]1C(=O)O [Example 12] | 12.5 (≈ 23.8 µM) | 6.25 (≈ 11.9 µM) | 0.05 (≈ 0.0953 µM) | 12.5 (≈ 23.8 µM) | 0.78 (≈ 1.49 µM) | 6.25 (≈ 11.9 µM) | – |
| Cc1ccc(C(=O)N[C@@H](C(=O)N[C@@H]2C(=O)N3[C@@H]2SC(C)(C)[C@@H]3C(=O)O)c2ccccc2)c(O)n1 [Example 13] | 12.5 (≈ 25.8 µM) | 25 (≈ 51.6 µM) | 0.2 (≈ 0.413 µM) | 12.5 (≈ 25.8 µM) | 0.39 (≈ 0.805 µM) | 12.5 (≈ 25.8 µM) | – |
| CN(C)c1ccc2ncc(C(=O)N[C@@H](C(=O)N[C@@H]3C(=O)N4[C@@H]3SC(C)(C)[C@@H]4C(=O)O)c3ccc(O)cc3)c(O)c2n1 [Example 14] | 1.56 (≈ 2.69 µM) | 3.13 (≈ 5.39 µM) | 0.1 (≈ 0.172 µM) | 3.13 (≈ 5.39 µM) | 3.13 (≈ 5.39 µM) | 1.56 (≈ 2.69 µM) | – |
| Cc1ccc2c(O)c(C(=O)N[C@@H](C(=O)N[C@@H]3C(=O)N4[C@@H]3SC(C)(C)[C@@H]4C(=O)O)c3ccccc3)cnc2n1 [Example 15] | 3.13 (≈ 5.84 µM) | 1.56 (≈ 2.91 µM) | 0.2 (≈ 0.373 µM) | 3.13 (≈ 5.84 µM) | 0.39 (≈ 0.728 µM) | 3.13 (≈ 5.84 µM) | – |
| COc1cc2ncc(C(=O)N[C@@H](C(=O)N[C@@H]3C(=O)N4[C@@H]3SC(C)(C)[C@@H]4C(=O)O)c3ccccc3)c(O)c2cn1 [Example 16] | – | 6.25 (≈ 11.3 µM) | 0.2 (≈ 0.363 µM) | 6.25 (≈ 11.3 µM) | – | – | – |
| CC(=O)Nc1ccc2ncc(C(=O)N[C@@H](C(=O)N[C@@H]3C(=O)N4[C@@H]3SC(C)(C)[C@@H]4C(=O)O)c3ccccc3)c(O)c2c1 [Example 17] | 12.5 (≈ 21.6 µM) | 3.13 (≈ 5.42 µM) | 0.1 (≈ 0.173 µM) | 6.25 (≈ 10.8 µM) | 0.78 (≈ 1.35 µM) | 3.13 (≈ 5.42 µM) | – |
| CC1(C)S[C@@H]2[C@H](NC(=O)[C@H](NC(=O)c3cnccc3O)c3ccc(O)cc3)C(=O)N2[C@H]1C(=O)O [Example 18] | 12.5 (≈ 25.7 µM) | 200 (≈ 411 µM) | 0.2 (≈ 0.411 µM) | 3.13 (≈ 6.43 µM) | 1.56 (≈ 3.21 µM) | 25 (≈ 51.4 µM) | – |
| Cc1ccc2c(O)c(C(=O)N[C@@H](C(=O)N[C@@H]3C(=O)N4[C@@H]3SC(C)(C)[C@@H]4C(=O)O)c3ccc(O)cc3)cnc2n1 [Example 19] | 6.25 (≈ 11.3 µM) | – | 0.39 (≈ 0.707 µM) | – | 1.56 (≈ 2.83 µM) | 25 (≈ 45.3 µM) | – |
| CC1(C)S[C@@H]2[C@H](NC(=O)[C@H](NC(=O)c3cnc4cn[nH]c4c3O)c3ccccc3)C(=O)N2[C@H]1C(=O)O [Example 20] | 3.13 (≈ 6.13 µM) | 6.25 (≈ 12.2 µM) | 0.1 (≈ 0.196 µM) | 6.25 (≈ 12.2 µM) | 0.78 (≈ 1.53 µM) | 3.13 (≈ 6.13 µM) | – |
| CC1(C)S[C@@H]2[C@H](NC(=O)[C@H](NC(=O)c3nc4ccccc4nc3O)c3ccccc3)C(=O)N2[C@H]1C(=O)O [Example 21] | 6.25 (≈ 12 µM) | 12.5 (≈ 24 µM) | 0.78 (≈ 1.5 µM) | 1.56 (≈ 2.99 µM) | 0.2 (≈ 0.383 µM) | 25 (≈ 47.9 µM) | – |
| CC1(C)S[C@@H]2[C@H](NC(=O)[C@H](NC(=O)c3cnc4ccccc4c3O)c3ccc(O)cc3)C(=O)N2[C@H]1C(=O)O [Example 22] | 6.25 (≈ 11.6 µM) | – | 0.2 (≈ 0.373 µM) | – | – | – | – |
| CC1(C)S[C@@H]2[C@H](NC(=O)[C@H](NC(=O)c3nnc4ccccc4c3O)c3ccc(O)cc3)C(=O)N2[C@H]1C(=O)O [Example 23] | – | – | 0.78 (≈ 1.45 µM) | – | – | – | – |
| Cc1ccc2ncc(C(=O)N[C@@H](C(=O)N[C@@H]3C(=O)N4[C@@H]3SC(C)(C)[C@@H]4C(=O)O)c3ccc(O)cc3)c(O)c2n1 [Example 26] | 1.56 (≈ 2.83 µM) | – | 0.05 (≈ 0.0906 µM) | – | – | – | – |
| COc1ccc2ncc(C(=O)N[C@@H](C(=O)N[C@@H]3C(=O)N4[C@@H]3SC(C)(C)[C@@H]4C(=O)O)c3ccc(O)cc3)c(O)c2n1 [Example 27] | 3.13 (≈ 5.51 µM) | – | 0.05 (≈ 0.0881 µM) | – | – | – | – |
| CN(C)c1ccc2ncc(C(=O)N[C@@H](C(=O)N[C@@H]3C(=O)N4[C@@H]3SC(C)(C)[C@@H]4C(=O)O)C3=CCC=CC3)c(O)c2n1 [Example 28] | 1.56 (≈ 2.75 µM) | 6.25 (≈ 11 µM) | 0.05 (≈ 0.0882 µM) | 3.13 (≈ 5.52 µM) | 0.78 (≈ 1.38 µM) | 1.56 (≈ 2.75 µM) | – |
| CC1(C)S[C@@H]2[C@H](NC(=O)C(c3ccccc3)S(=O)(=O)O)C(=O)N2[C@H]1C(=O)O (stereo partly shown) [Sulfocillin] | – | – | – | – | – | – | not sufficiently strong |

Source: patent US4005075A, “Penicillins and their preparation” (Sumitomo Chemical Company, Limited, priority 1973, dated 1977)
